This note sets out measurements from ChEMBL document CHEMBL1156335, “Inhibition studies of a beta-carbonic anhydrase from Brucella suis with a series of water soluble glycosyl sulfanilamides” (Bioorg Med Chem Lett, 2010).

The source made the active and inactive calls. The calls are words filed in the database; no cut-off is given here.

The experiment has as its target T1, Histidinol dehydrogenase (Brucella suis biovar 1 (strain 1330)) (UniProt Q8G2R2).
T1 sequence (whole entry): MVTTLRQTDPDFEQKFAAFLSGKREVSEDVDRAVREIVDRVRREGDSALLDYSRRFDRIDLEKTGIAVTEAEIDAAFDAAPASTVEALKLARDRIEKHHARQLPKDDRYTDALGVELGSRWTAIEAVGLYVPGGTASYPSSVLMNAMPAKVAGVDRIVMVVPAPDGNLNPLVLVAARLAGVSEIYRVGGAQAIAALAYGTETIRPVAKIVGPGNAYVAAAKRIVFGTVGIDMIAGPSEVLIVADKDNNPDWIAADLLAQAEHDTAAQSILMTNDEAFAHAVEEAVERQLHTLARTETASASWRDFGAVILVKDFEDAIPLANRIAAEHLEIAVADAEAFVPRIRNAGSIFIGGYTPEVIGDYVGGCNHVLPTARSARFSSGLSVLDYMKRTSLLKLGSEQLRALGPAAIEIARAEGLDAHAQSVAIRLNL
Nature of the experiment: Antibacterial activity against Brucella suis at 10 uM after 8 to 11 days. Type of experiment: functional.

With `C[C@H]1O[C@@H](Nc2ccc(S(N)(=O)=O)cc2)[C@@H](O)[C@@H](O)[C@@H]1O`, the result was Active.
